Legend:
[1] = parameters: method as in PMID 34416076; settings: cited from earlier work
BCL-2 = experiment: Automated Western blot (WES) analysis of BCL-2 protein in patient PBMCs; type: in vivo, human
Protocol: (§1) PBMCs from the trial patients or healthy donors were isolated from whole blood using Lymphoprep™ ([…] Technologies, Cat. #07801) following the manufacturer’s protocol. Whole blood was diluted 1:1 with room temperature phosphate-buffered saline (PBS) containing 2% fetal bovine serum (FBS) and carefully layered over an equal volume of Lymphoprep™ in a 50 mL conical tube. Samples were centrifuged at 800 × g for 20–30 min at room temperature with the brake off. The PBMC layer formed at the interface between the plasma and Lymphoprep™ was gently collected and transferred to a new tube. Cells were washed once with PBS containing 2% FBS by centrifugation at 300 × g for 10 min, and the final pellet was resuspended in DMEM media for downstream culture.
The BCL-2 protein levels in patient PBMCs were analyzed using PBMC lysate in the automated quantitative WES™ system (https://www.bio-techne.com/brands/proteinsimple), as we previously described. Briefly, the Simple Western WES™ immunoassays take place in capillaries and separate proteins by size as they migrate through stacking and separation matrix. The separated proteins are immobilized to the capillary wall via a proprietary, photoactivated capture chemistry. […] Quantitative results such as M.W, signal intensity (area), % area, and signal-to-noise for each immunodetected protein are presented in the results table automatically. […]

BCL-2β mRNA = experiment: qPCR analysis of BCL-2β mRNA in healthy donor PBMCs treated ex vivo with ABT-199; type: cell-based, human; settings: 1 µM; for BCL-2β mRNA levels: 2–4 h post-treatment
Protocol: as §1
ABT-199 (S8048, Selleck Chemicals) was dissolved in DMSO. Healthy donor PBMCs were seeded at a density of 2 × 10⁶ cells per 60 mm dish and treated with 1 μM of ABT-199 for various time intervals (i.e., 2, 4, 8, and 24 h). At the end of each time point, PBMCs were harvested for protein and RNA extraction (below). All treatments were performed in 3–6 biological replicates and control samples were treated with vehicle (DMSO) only.
We developed a qPCR-based strategy to quantitatively analyze the BCL-2α/β mRNA levels in control and ABT-199 treated PBMCs (above). Briefly, total RNA was extracted using the PicoPure™ RNA Isolation Kit (Thermo Fisher Scientific, cat# KIT0204) with on-column DNase treatment. cDNA was synthesized from 750 ng RNA using SuperScript™ IV VILO™ Master Mix (Thermo Fisher Scientific, cat# 11,756,050). Quantitative PCR was performed using TaqMan Gene Expression Assays (Bio-Rad) with a FAM-conjugated custom probe specific for the BCL-2β isoform (5’-[…]-3’; Bio-Rad, part# 10,031,261). […] Reactions were run on the QuantStudio™ 6 Flex Real-Time PCR System (Applied Biosystems) under standard cycling conditions. Relative expression was calculated using the 2^–ΔΔCt method normalized to the 0-h (untreated) control. All conditions were tested in technical triplicates from 3–6 independent experiments.

Compound: CC1(C)CCC(CN2CCN(c3ccc(C(=O)NS(=O)(=O)c4ccc(NCC5CCOCC5)c([N+](=O)[O-])c4)c(Oc4cnc5[nH]ccc5c4)c3)CC2)=C(c2ccc(Cl)cc2)C1 [venetoclax]
- Permeability [1]: low
- Solubility [1]: low
- BCL-2β and BCL-2α protein in patients' PBMCs (BCL-2; three 'responsive' patients (02–01, 02–07, 01–03), early cycles of treatment): promoted the generation of BCL-2β with concordant reduction in BCL-2α protein
- BCL-2α and BCL-2β protein in patients' PBMCs (BCL-2; three 'responsive' patients, late cycles and towards the end of treatment (EoT)): markedly reduced
- BCL-2β mRNA levels (BCL-2β mRNA): induced
- BCL-2β mRNA levels (BCL-2β mRNA; listed as Venetoclax): increased significantly
- BCL-2β mRNA (BCL-2β mRNA; ≥ 24 h post treatment): undetectable

— publication PMC12662848 (Cancer Chemotherapy and Pharmacology, 2025)
